This note sets out measurements from US20240290636A1, “SUBSTRATE TREATING METHOD, SUBSTRATE TREATING APPARATUS, AND TREATMENT LIQUID” (SCREEN Holdings Co., Ltd., priority 2021, published 2024).

Series [1] in a line: Vapor pressure of the sublimable substance. Conditions: absolute pressure. The method, then:
The sublimable substance has a vapor pressure of 0.1 Pa or more and 1.0 Pa or less at normal temperatures. Here, the normal temperatures include a room temperature. The normal temperatures fall within a temperature range of 5° C. or more and 35° C. or less, for example. The normal temperatures fall within a temperature range of 10° C. or more and 30° C. or less, for example. In this specification, the value of vapor pressure is indicated as absolute pressure relative to absolute vacuum.

On series [2], the source says:
The ability of the solvent to dissolve the sublimable substance is indicated, for example, by the solubility of the sublimable substance in the solvent. Hereinafter, the solubility of the sublimable substance in the solvent is appropriately referred to as solubility Rm. The solubility Rm is a limit amount of sublimable substance that is soluble in a certain amount of solvent. As the solubility Rm increases, the ability of the solvent to dissolve the sublimable substance increases. Therefore, the solubility Rm is preferably high.
In general, the solubility Rm varies with temperature. The treatment liquid is used at normal temperatures. Therefore, the solubility Rm is preferably high at normal temperatures. The solubility Rm is preferably 150 vol % or more at normal temperatures.
For example, when the maximum volume of the sublimable substance soluble in the solvent of volume Q2c is Q1m, the solubility Rm is a ratio of the maximum volume Q1m to the volume Q2c. Specifically, the solubility Rm is defined by the following formula.

The vapor pressure is the equilibrium pressure above the liquid or solid. Lower therefore signals a less volatile sample. With `CC(=NO)C(C)(C)C` [pinacolone oxime], the “vapor pressure at 25° C.” value in series [1] worked out at 35.3 Pa.
Consider `CC(=NO)c1ccccc1` [acetophenone oxime], for which, in series [1], the “vapor pressure at 25° C.” value was 0.27 Pa. In series [2], the “solubility Rm at 25° C.” value was determined as 186 vol % and the “solubility Rm at normal temperatures” value is listed as at least 150 vol %.
Consider `ON=C1CCCCC1` [cyclohexanone oxime], for which the “vapor pressure at 25° C.” value in series [1] amounted to 1.45 Pa.
